One data set in a line: pH of 30% solution. The data set is classed as physicochemical.
The next data set is described as follows: Water solubility. The format is physicochemical. To be noted: for water solubility: synthesis example, isolated powder.
The test system of the next data set is Staphylococcus Aerus. As to the kind of experiment: Biocide effication plate test, Staphylococcus Aerus. The data set is classed as cell-based. The conditions noted are these: biocide dosing 0.025%.
In data set [1] the test system is Total Plate Count Microorganism. As to the kind of experiment: Biocide effication plate test, total plate count microorganism. The data set is classed as cell-based. The conditions noted are these: for Total Plate Count: Blanco/Control 2400.
For data set [2], the system named is Staphylococcus Aerus ATCC 6538. In words: Antibacterial activity MIC. To be noted: pH 7-7.5, sample 30% in aqueous solution. The format is cell-based. On the procedure:
(§1) The ability of Tetra Hydroxy Ethyl Di Sulphate-Di Natrium (THES) as a Sulphate chelating agent to open/loosen the cell membrane was tested against two types of bacterias, ie: Staphylococcus aerus (gram positive) that has two cell membrane (the outer membrane as the outer cell wall and the inner membrane) and E. Colli (gram negative) that has three cell membranes. First, the Minimum Inhibitory Concentration (MIC) of each bacterias was determined, then the bacteria membrane alteration after contacting with THES were observed by Electron Microscope (TEM and SEM) with the THES concentration range below and above MIC. Antibacterial activity was tested using disc-diffusion method by checking the clear zone from the paper disc inhibition that contains THES. The growth curve were made by means examining the bacterial culture on the broth media.
(§2) • 1. Bacteria preparation • The testing bacterias were growth on the aqueous medium and incubated for 24 hours at 37° C. • 2. […] This gradual concentration variation is necessary to determine MIC (Minimum Inhibitory Concentration) and the bacteriostatic/bactericidal properties of the tested Biocide. • 3. Determination of Killing method (bacteriostatic and bactericidal properties) • The testing was done on the aqueous medium contains the tested substance with the concentration 5, 10 and 20%. The turbidity of the cultured medium then will be measured every 30 minutes until 270 minutes with spectrophotometer. • 4. Preparation of microbe cells for electron microscope examination • Staphylococcus aereus and Escherichia coli were growth on the aqueous medium within 24 hours, then mixed with tetra hydroxy ethyl di sulphate di sodium (THES) with the final concentration 0.6; 5 and 10%. This system mixtures then was placed under vibrating incubator for several hours. Microbe cells then were separated and washed, first with NaCl 0.9% then with distilled water. Cells then were utilized for the preparation of electron microscope testing. • 5. Preparation for Scanning Electron Microscope (SEM) examination • Bacteria cells were suspended into 4% collodion. The said suspensions then were fixed on some metal disc and were coated with the gold powder. Then were examined with electron microscope and pictured. • 6. Preparation for Transmittance Electron Microscope (TEM) examination • a) The prepared microbes in (5) were fixed into a mixture of formaldehyde 2% and glutaraldehyde 0.5% for 2 hours at 4° C. • b) The above mixtures then was three times washed with pH 7 phosphate buffer, then were diluted into bovin serum albumin (BSA) 1/5 for embedded preparation, while leave glutaraldehyde hardening at room temperature. • c) After leaving dehydrated in alcohol, the white LR resin then will be infiltrated. • d) Embedded process were done at white LR resin following by polymerization process at 60° C. for 48 hours time. The polymerization product as hardened capsules then are ready to be sliced. • e) Making of semi thin and ultra thin slices. • Slices of microbe sample were made by utilizing automatic ultra microtom. To get the precised and accurate slices of sample, semi thin slice were made and coloured with blue toluidine then were examined under the visible microscope. When the right slices were obtained, ultra thin slices were prepared and were made contrast with uranil acetate and lead citrate. The dried ultra thin slices then can be examined with Transmittance Electron Microscope. Testing Results Minimum Inhibitory Concentration (MIC)
(§3) The test done on the pH range of 7-7.5 with the sample of Tetra Hydroxy Ethyl Di Sulphate-Di Natrium (THES-Di Natrium) 30% in aqueous solution.

The test system of data set [3] is Bacillus Subtilis ATCC 6633. In words: Antibacterial activity MIC. The format is cell-based. The conditions noted are these: pH 7-7.5, sample 30% in aqueous solution. Here is the method: as §1, §2, §3
In a further data set the test system is Salmonella Typhii. As to the kind of experiment: Antibacterial activity MIC. To be noted: pH 7-7.5, sample 30% in aqueous solution. The data set is classed as cell-based. Here is the method:
as §1, §2, §3

Data set [4] relates to Pseudomonas Aeruginosa ATCC 27853. In words: Antibacterial activity MIC. The conditions noted are these: pH 7-7.5, sample 30% in aqueous solution. The data set is classed as cell-based. Here is the method:
as §1, §2, §3

Data set [5] concerns Escherichia Coli ATCC 25922. As to the kind of experiment: Antibacterial activity MIC. To be noted: pH 7-7.5, sample 30% in aqueous solution. The data set is classed as cell-based. On the procedure:
as §1, §2, §3

The subject of data set [6] is Staphylococcus Epidermidis ATCC 12228. As to the kind of experiment: Antibacterial activity MIC. The format is cell-based. The conditions noted are these: pH 7-7.5, sample 30% in aqueous solution. On the procedure: as §1, §2, §3
The test system of another data set is Klebsiella Pneumoniae. As to the kind of experiment: Antibacterial activity MIC. The data set is classed as cell-based. To be noted: pH 7-7.5, sample 30% in aqueous solution. On the procedure:
as §1, §2, §3

The next data set relates to Acinetobacter Anitratus. As to the kind of experiment: Antibacterial activity MIC. The data set is classed as cell-based. The conditions noted are these: pH 7-7.5, sample 30% in aqueous solution. On the procedure:
as §1, §2, §3

The next data set has as its system Candida Albicans. In words: Antifungal activity MIC. The data set is classed as cell-based. The conditions noted are these: pH 7-7.5, sample 30% in aqueous solution. Here is the method: as §1
(§4) • 1. Bacteria preparation • The testing bacterias were growth on the aqueous medium and incubated for 24 hours at 37° C. • 2. […] The turbidity of the cultured medium then will be measured every 30 minutes until 270 minutes with spectrophotometer. • 4. […] The polymerization product as hardened capsules then are ready to be sliced. • e) Making of semi thin and ultra thin slices. • Slices of microbe sample were made by utilizing automatic ultra microtom. […]

For the next data set, the system named is Aspergillus Niger. In words: Antifungal activity MIC. The format is cell-based. The conditions noted are these: pH 7-7.5, sample 30% in aqueous solution. On the procedure: as §1, §4
Data set [7] has as its system Staphylococcus Aerus ATCC 6538. In words: Electron microscope (TEM and SEM) examination of cell membrane. The data set is classed as cell-based. To be noted: in contact with 0.05% and 1% THES at pH 7 (FIG. 4). Here is the method: as §1
(§5) Staphylococcus aerus ATCC 6538, Escherichia coli ATCC 9637 were supplied from Chemotherapy Laboratory of Pharmaceutical Department, Bandung Institute of Technology (ITB).
(§6) • 1. […] The turbidity of the cultured medium then will be measured every 30 minutes until 270 minutes with spectrophotometer. • 4. […] The polymerization product as hardened capsules then are ready to be sliced. • e) Making of semi thin and ultra thin slices. • Slices of microbe sample were made by utilizing automatic ultra microtom. […]

For data set [8], the system named is Escherichia coli ATCC 9637. The data set is described as above. The data set is classed as cell-based. To be noted: in contact with 0.05% and 1% THES at pH 7 (FIG. 5). On the procedure: as §1, §5, §6
The subject of another data set is E. Coli. As to the kind of experiment: Biocide effication plate test, E. Coli. The data set is classed as cell-based. The conditions noted are these: for Total Plate Count: Blanco 3900.

Bounds are passed on as bounds.

With `O=S(=O)(O)OC(OS(=O)(=O)O)(OS(=O)(=O)O)C(OS(=O)(=O)O)(OS(=O)(=O)O)OS(=O)(=O)O` [EHS, Ethyl Hexa Sulphate acid (EHS)], the “pH of 30% solution” value in the data set “pH of 30% solution” was determined as 0.0. Further, in the data set “Water solubility”, the “Solubility @ 25° C.” value is 48% and the water solubility was 48%.

In the case of `O=S(=O)([O-])OC(O)(O)C(O)(O)OS(=O)(=O)[O-].[Na+].[Na+]` [THES-di Natrium], the Killing efficiency in the data set on Staphylococcus Aerus stood at 69.8; in data set [1] (biocide dosing 0.05%) it was 94.5; in [1] (biocide dosing 0.1%), 95.2; in [1] (biocide dosing 0.5%), 95.8; in data set [1] (biocide dosing 1.0%) it was 96.7; in the data set on E. Coli (biocide dosing 0.025%), 48.5. Moreover, the Killing efficiency in the data set on E. Coli (biocide dosing 0.05%) stood at 70.5; in the data set on E. Coli (biocide dosing 0.1%), 73.1; with E. Coli (biocide dosing 0.5%), 75.1; in the data set on E. Coli (biocide dosing 1.0%), 81.5; with E. Coli (biocide dosing 5.0%) it was 83.8. For the same compound, the “Total Plate Count” value was 296 Colony/ml in the data set with Staphylococcus Aerus (Blanco 980); 132 Colony/ml in data set [1] (biocide dosing 0.05%); 115 Colony/ml in data set [1] (biocide dosing 0.1%); 101 Colony/ml in data set [1] (biocide dosing 0.5%); 80 Colony/ml in data set [1] (biocide dosing 1.0%); 2010 Colony/ml in the data set on E. Coli (biocide dosing 0.025%). Besides, the “Total Plate Count” value in the data set with E. Coli (biocide dosing 0.05%) turned out to be 1150 Colony/ml; in the data set on E. Coli (biocide dosing 0.1%), 1050 Colony/ml; in the data set with E. Coli (biocide dosing 0.5%), 970 Colony/ml; with E. Coli (biocide dosing 1.0%), 720 Colony/ml; in the data set with E. Coli (biocide dosing 5.0%), 630 Colony/ml. Also, the “pH of 30% solution” value in the data set “pH of 30% solution” was 0.5-1.5. The “Minimum Inhibitory Concentration (MIC)” value is reported as 0.234% in data set [2]; 0.234% in data set [3]; 0.115% in the data set on Salmonella Typhii; 0.115% in data set [4]; 0.234% in [5]; 0.234% in data set [6]. Also, the “Minimum Inhibitory Concentration (MIC)” value with Klebsiella Pneumoniae was determined as 0.234%; with Acinetobacter Anitratus it was 0.115%; with Candida Albicans, 0.469%; in the data set with Aspergillus Niger it was 0.937%. The “Solubility @ 25° C.” value in the data set “Water solubility” stood at 31.5%. Moreover, in the data set “Water solubility”, the water solubility was determined as 31%. For the same compound, the “transversal section (TEM) of cell, cell membrane alteration” value in data set [7] was “partly empty cells that has already lost its cytoplasm liquid due to lysis out of cell wall membrane”; in [8] it was “also experienced the said internal cell liquid lysis out of its cell wall membrane layers”.

Take `O=S(=O)([O-])OC(O)C(O)(OS(=O)(=O)[O-])C(O)(OS(=O)(=O)[O-])C(O)OS(=O)(=O)[O-].[Na+].[Na+].[Na+].[Na+]` (stereo not shown) [Tetra Hydroxy Butyl 1,2,3,4 Tetra Sulphate Tetra Natrium]: the “pH of 30% solution” value in “pH of 30% solution” is reported as 0.0-1.0. Also, the “Solubility @ 25° C.” value in the data set “Water solubility” is recorded as 27.3%.

As for `O=S(=O)(O)OC(O)C(O)(OS(=O)(=O)O)C(O)(OS(=O)(=O)O)C(O)OS(=O)(=O)O` (stereo not shown) [Tetra Hydroxy Butyl 1,2,3,4 Tetra Sulphate], the “pH of 30% solution” value in “pH of 30% solution” is on record as less than 0.0. The “Solubility @ 25° C.” value in the data set “Water solubility” amounted to 39.6%.

Take `O=S(=O)(O)OC(O)(O)C(O)(O)OS(=O)(=O)O` [Tetra Hydroxy Ethyl Di Sulphate]: the “pH of 30% solution” value in “pH of 30% solution” is listed as less than 0.5. Also, in “Water solubility”, the “Solubility @ 25° C.” value is listed as 48.0% and the water solubility was determined as 48%.

On to `O=S(=O)([O-])OOC(O)C(O)(OS(=O)(=O)[O-])C(C(O)OS(=O)(=O)[O-])C(O)OS(=O)(=O)[O-].[Na+].[Na+].[Na+].[Na+]` (stereo not shown) [Tetra Hydroxy Isoamyl 1,2,3,4-Tetra Sulphate Tetra Natrium], for which the “pH of 30% solution” value in “pH of 30% solution” is listed as 0.0-0.5. The “Solubility @ 25° C.” value in the data set “Water solubility” turned out to be 40.1%.

In the case of `O=S(=O)(O)OOC(O)C(O)(OS(=O)(=O)O)C(C(O)OS(=O)(=O)O)C(O)OS(=O)(=O)O` (stereo not shown) [Tetra Hydroxy Isoamyl 1,2,3,4-Tetra Sulphate], the “pH of 30% solution” value in the data set “pH of 30% solution” is less than 0. Also, the “Solubility @ 25° C.” value in the data set “Water solubility” was determined as 61.2%.

With `O=S(=O)([O-])OC(O)C(C(O)OS(=O)(=O)[O-])C(O)OS(=O)(=O)[O-].[Na+].[Na+].[Na+]` (stereo not shown) [Tri Hydroxy Isobutyl 1,2,3-Tri Sulphate Tri Natrium], the “pH of 30% solution” value in “pH of 30% solution” was 0.0-1.0. The “Solubility @ 25° C.” value in the data set “Water solubility” was found to be 36.2%.

Take `O=S(=O)(O)OC(O)C(C(O)OS(=O)(=O)O)C(O)OS(=O)(=O)O` (stereo not shown) [Tri Hydroxy Isobutyl 1,2,3-Tri Sulphate]: the “pH of 30% solution” value in “pH of 30% solution” is less than 0.0. For the same compound, in “Water solubility”, the “Solubility @ 25° C.” value was 56.7%.

Values taken from patent US9950998B2, “Sulphated chelating agent” (priority 2012, dated 2018).
